Laboratory results: ChEMBL document CHEMBL1909046, “DrugMatrix in vitro pharmacology data”

Tests used:
[1] = DRUGMATRIX: Interleukin IL-1 radioligand binding (ligand: [125I] interleukin 1beta); type: cell membranes, Membrane; details: nih3t3; Not Active = under 50% inhibition at 10 µM
Cytochrome P450 2D6 = Cytochrome P450 2D6 (Homo sapiens, UniProt P10635); details: bti-tn-5b1-4; note: in other assays of this panel Not Active means under 50% inhibition at 10 µM
[2] = DRUGMATRIX: ATPase, Na+/K+ enzyme inhibition (substrate: ATP); type: tissue-based, Sus scrofa, Heart; details: Not Active = under 50% inhibition at 10 µM
[3] = DRUGMATRIX: beta-Lactamase enzyme inhibition (substrate: Nitrocefin); design: species or system Bacillus cereus; details: Not Active = under 50% inhibition at 10 µM
Mu-type opioid receptor = Mu-type opioid receptor (Homo sapiens, UniProt P35372); test: DRUGMATRIX: Opiate mu (OP3, MOP) radioligand binding (ligand: [3H] Diprenorphine); type: cell membranes, CHO-K1, Membrane; details: cho-k1; Not Active = under 50% inhibition at 10 µM
Mu-type opioid receptor, sequence (P35372 whole entry): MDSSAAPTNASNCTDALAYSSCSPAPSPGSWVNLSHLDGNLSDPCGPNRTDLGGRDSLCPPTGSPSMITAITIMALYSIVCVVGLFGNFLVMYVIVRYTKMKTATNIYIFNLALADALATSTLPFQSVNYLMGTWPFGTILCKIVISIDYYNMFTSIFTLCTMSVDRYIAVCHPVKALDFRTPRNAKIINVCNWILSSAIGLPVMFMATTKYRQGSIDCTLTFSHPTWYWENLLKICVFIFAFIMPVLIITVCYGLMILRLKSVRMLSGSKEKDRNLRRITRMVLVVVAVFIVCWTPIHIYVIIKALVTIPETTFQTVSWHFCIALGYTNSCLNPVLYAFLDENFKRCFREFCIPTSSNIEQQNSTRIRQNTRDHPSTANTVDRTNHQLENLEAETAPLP

[4] = molecular target: Beta-2 adrenergic receptor (Homo sapiens, UniProt P07550); test: DRUGMATRIX: Adrenergic beta2 radioligand binding (ligand: [3H] CGP-12177); type: cell membranes, CHO, Membrane; details: cho; Not Active = under 50% inhibition at 10 µM
Beta-2 adrenergic receptor, sequence (P07550 whole entry): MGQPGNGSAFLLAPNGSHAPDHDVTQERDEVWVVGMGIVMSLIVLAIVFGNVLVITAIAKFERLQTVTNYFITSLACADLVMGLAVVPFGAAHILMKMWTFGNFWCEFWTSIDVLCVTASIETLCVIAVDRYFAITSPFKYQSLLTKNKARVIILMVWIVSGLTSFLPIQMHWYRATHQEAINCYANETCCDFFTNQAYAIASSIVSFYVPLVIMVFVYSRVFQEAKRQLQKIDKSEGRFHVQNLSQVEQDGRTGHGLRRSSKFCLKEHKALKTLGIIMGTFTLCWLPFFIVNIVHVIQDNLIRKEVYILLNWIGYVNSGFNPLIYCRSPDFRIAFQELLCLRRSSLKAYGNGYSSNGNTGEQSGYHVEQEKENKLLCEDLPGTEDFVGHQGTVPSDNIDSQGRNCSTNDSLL

[5] = molecular target: T1, Muscarinic acetylcholine receptor M5 (Homo sapiens, UniProt P08912); type: cell membranes, CHO-K1, Membrane; details: cho-k1; note: in other assays of this panel Not Active means under 50% inhibition at 10 µM
T1 sequence (P08912 whole entry): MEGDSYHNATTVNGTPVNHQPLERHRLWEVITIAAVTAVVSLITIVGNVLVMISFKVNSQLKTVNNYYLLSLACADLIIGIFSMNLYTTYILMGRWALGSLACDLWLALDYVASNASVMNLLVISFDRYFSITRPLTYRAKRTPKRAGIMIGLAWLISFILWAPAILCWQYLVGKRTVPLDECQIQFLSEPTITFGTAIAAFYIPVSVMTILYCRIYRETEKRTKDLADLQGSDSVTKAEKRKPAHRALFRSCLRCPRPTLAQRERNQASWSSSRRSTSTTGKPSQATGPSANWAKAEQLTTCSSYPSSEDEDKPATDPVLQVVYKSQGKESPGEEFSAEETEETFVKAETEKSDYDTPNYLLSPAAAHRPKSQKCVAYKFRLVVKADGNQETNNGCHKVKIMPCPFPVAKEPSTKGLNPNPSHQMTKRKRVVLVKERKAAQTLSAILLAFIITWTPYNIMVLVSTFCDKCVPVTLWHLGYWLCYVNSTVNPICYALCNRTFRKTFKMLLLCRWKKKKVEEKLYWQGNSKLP

[6] = DRUGMATRIX: GABAA, Chloride Channel, TBOB radioligand binding (ligand: [3H] TBOB); type: cell membranes, Rattus norvegicus, Wistar, Cerebral cortex, Membrane; details: Not Active = under 50% inhibition at 10 µM

Cytochrome P450 2D6, sequence (P10635 whole entry): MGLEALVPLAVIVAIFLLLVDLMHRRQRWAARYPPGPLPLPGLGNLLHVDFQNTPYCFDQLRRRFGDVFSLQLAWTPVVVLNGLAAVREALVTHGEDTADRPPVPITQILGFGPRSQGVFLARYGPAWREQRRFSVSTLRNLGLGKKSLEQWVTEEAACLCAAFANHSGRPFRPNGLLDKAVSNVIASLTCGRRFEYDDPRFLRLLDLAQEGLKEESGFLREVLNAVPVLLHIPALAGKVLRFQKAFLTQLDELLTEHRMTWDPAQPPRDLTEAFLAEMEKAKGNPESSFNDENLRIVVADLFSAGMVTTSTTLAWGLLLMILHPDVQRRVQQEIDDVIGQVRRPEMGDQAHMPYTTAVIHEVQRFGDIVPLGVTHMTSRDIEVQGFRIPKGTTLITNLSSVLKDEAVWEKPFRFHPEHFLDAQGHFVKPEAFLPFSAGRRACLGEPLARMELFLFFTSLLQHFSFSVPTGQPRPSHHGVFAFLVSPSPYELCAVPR

O=C(c1ccccc1C(F)(F)F)N1CCC(Cc2ccccc2)CC1
Not Active: IC50 [1] | Ki [1] | IC50 (Cytochrome P450 2D6) | Ki (Cytochrome P450 2D6) | IC50 [2] | Ki [2] | IC50 [3] | Ki [3] | IC50 (Mu-type opioid receptor) | IC50 [4] | IC50 [5] | IC50 [6] | Ki [6]

Nc1ccc2c3c(cccc13)C(=O)NC2=O
Not Active: IC50 [1] | Ki [1] | IC50 (Cytochrome P450 2D6) | Ki (Cytochrome P450 2D6) | IC50 [2] | Ki [2] | IC50 [3] | Ki [3] | IC50 (Mu-type opioid receptor) | IC50 [4] | IC50 [5] | IC50 [6] | Ki [6]

COc1ccc(C(=O)N2CCCC2=O)cc1
Not Active: IC50 [1] | Ki [1] | IC50 (Cytochrome P450 2D6) | Ki (Cytochrome P450 2D6) | IC50 [2] | Ki [2] | IC50 [3] | Ki [3] | IC50 (Mu-type opioid receptor) | IC50 [4] | IC50 [5] | IC50 [6] | Ki [6]

O=c1cnn([C@@H]2O[C@H](CO)[C@@H](O)[C@H]2O)c(=O)[nH]1 [6-AZAURIDINE]
Not Active: IC50 [1] | Ki [1] | IC50 (Cytochrome P450 2D6) | Ki (Cytochrome P450 2D6) | IC50 [2] | Ki [2] | IC50 [3] | Ki [3] | IC50 (Mu-type opioid receptor) | IC50 [4] | IC50 [5] | IC50 [6] | Ki [6]

CC[C@H](C)[C@H]1O[C@]2(C=C[C@@H]1C)C[C@@H]1C[C@@H](C/C=C(\C)[C@@H](O[C@H]3C[C@H](OC)[C@@H](O[C@H]4C[C@H](OC)[C@@H](O)[C@H](C)O4)[C@H](C)O3)[C@@H](C)/C=C/C=C3\CO[C@@H]4[C@H](O)C(C)=C[C@@H](C(=O)O1)[C@]34O)O2.CO[C@H]1C[C@H](O[C@H]2[C@H](C)O[C@@H](O[C@@H]3/C(C)=C/C[C@@H]4C[C@@H](C[C@]5(C=C[C@H](C)[C@@H](C(C)C)O5)O4)OC(=O)[C@@H]4C=C(C)[C@@H](O)[C@H]5OC/C(=C\C=C\[C@@H]3C)[C@]54O)C[C@@H]2OC)O[C@@H](C)[C@@H]1O [ABAMECTIN]
Not Active: IC50 [1] | Ki [1] | IC50 (Cytochrome P450 2D6) | Ki (Cytochrome P450 2D6) | IC50 [2] | Ki [2] | IC50 [3] | Ki [3] | IC50 (Mu-type opioid receptor) | IC50 [4] | IC50 [5] | IC50 [6] | Ki [6]

Cn1c(=O)c2[nH]cnc2n(C)c1=O.Cn1c(=O)c2[nH]cnc2n(C)c1=O.NCCN [AMINOPHYLLINE]
Not Active: IC50 [1] | Ki [1] | IC50 (Cytochrome P450 2D6) | Ki (Cytochrome P450 2D6) | IC50 [2] | Ki [2] | IC50 [3] | Ki [3] | IC50 (Mu-type opioid receptor) | IC50 [4] | IC50 [5] | IC50 [6] | Ki [6]

CCC1(CCC(C)C)C(=O)NC(=O)NC1=O [AMOBARBITAL]
Not Active: IC50 [1] | Ki [1] | IC50 (Cytochrome P450 2D6) | Ki (Cytochrome P450 2D6) | IC50 [2] | Ki [2] | IC50 [3] | Ki [3] | IC50 (Mu-type opioid receptor) | IC50 [4] | IC50 [5] | IC50 [6] | Ki [6]

CC1(C)S[C@@H]2[C@H](NC(=O)[C@H](N)c3ccccc3)C(=O)N2[C@H]1C(=O)O [AMPICILLIN]
Not Active: IC50 [1] | Ki [1] | IC50 (Cytochrome P450 2D6) | Ki (Cytochrome P450 2D6) | IC50 [2] | Ki [2] | IC50 [3] | Ki [3] | IC50 (Mu-type opioid receptor) | IC50 [4] | IC50 [5] | IC50 [6] | Ki [6]

COc1ccc(C2C(=O)c3ccccc3C2=O)cc1 [ANISINDIONE]
Not Active: IC50 [1] | Ki [1] | IC50 (Cytochrome P450 2D6) | Ki (Cytochrome P450 2D6) | IC50 [2] | Ki [2] | IC50 [3] | Ki [3] | IC50 (Mu-type opioid receptor) | IC50 [4] | IC50 [5] | IC50 [6] | Ki [6]

O=C1O[C@H]([C@@H](O)CO)C(O)=C1O [ASCORBIC ACID]
Not Active: IC50 [1] | Ki [1] | IC50 (Cytochrome P450 2D6) | Ki (Cytochrome P450 2D6) | IC50 [2] | Ki [2] | IC50 [3] | Ki [3] | IC50 (Mu-type opioid receptor) | IC50 [4] | IC50 [5] | IC50 [6] | Ki [6]

CC(C(=O)O)c1ccc2oc(-c3ccc(Cl)cc3)nc2c1 (centres undefined) [BENOXAPROFEN]
Not Active: IC50 [1] | Ki [1] | IC50 (Cytochrome P450 2D6) | Ki (Cytochrome P450 2D6) | IC50 [2] | Ki [2] | IC50 [3] | Ki [3] | IC50 (Mu-type opioid receptor) | IC50 [4] | IC50 [5] | IC50 [6] | Ki [6]

O=C(O)CCNC(=O)c1ccccc1 [BETAMIPRON]
Not Active: IC50 [1] | Ki [1] | IC50 (Cytochrome P450 2D6) | Ki (Cytochrome P450 2D6) | IC50 [2] | Ki [2] | IC50 [3] | Ki [3] | IC50 (Mu-type opioid receptor) | IC50 [4] | IC50 [5] | IC50 [6] | Ki [6]

CC(=O)Oc1ccc(C(c2ccc(OC(C)=O)cc2)c2ccccn2)cc1 [BISACODYL]
Not Active: IC50 [1] | Ki [1] | IC50 (Cytochrome P450 2D6) | Ki (Cytochrome P450 2D6) | IC50 [2] | Ki [2] | IC50 [3] | Ki [3] | IC50 (Mu-type opioid receptor) | IC50 [4] | IC50 [5] | IC50 [6] | Ki [6]

Brc1c(NC2=NCCN2)ccc2nccnc12 [BRIMONIDINE]
Not Active: IC50 [1] | Ki [1] | IC50 (Cytochrome P450 2D6) | Ki (Cytochrome P450 2D6) | IC50 [2] | Ki [2] | IC50 [3] | Ki [3] | IC50 (Mu-type opioid receptor) | IC50 [4] | IC50 [5] | IC50 [6] | Ki [6]

CN(C)[C@@H]1C(O)=C(C(N)=O)C(=O)[C@@]2(O)C(O)=C3C(=O)c4c(O)ccc(Cl)c4[C@@](C)(O)[C@H]3C[C@@H]12 [CHLORTETRACYCLINE]
Not Active: IC50 [1] | Ki [1] | IC50 (Cytochrome P450 2D6) | Ki (Cytochrome P450 2D6) | IC50 [2] | Ki [2] | IC50 [3] | Ki [3] | IC50 (Mu-type opioid receptor) | IC50 [4] | IC50 [5] | IC50 [6] | Ki [6]

CN/C(=N\CCSCc1nc[nH]c1C)NC#N [CIMETIDINE]
Not Active: IC50 [1] | Ki [1] | IC50 (Cytochrome P450 2D6) | Ki (Cytochrome P450 2D6) | IC50 [2] | Ki [2] | IC50 [3] | Ki [3] | IC50 (Mu-type opioid receptor) | IC50 [4] | IC50 [5] | IC50 [6] | Ki [6]

CCC(=O)O[C@]1(C(=O)CCl)[C@@H](C)C[C@H]2[C@@H]3CCC4=CC(=O)C=C[C@]4(C)[C@@]3(F)[C@@H](O)C[C@@]21C [CLOBETASOL PROPIONATE]
Not Active: IC50 [1] | Ki [1] | IC50 (Cytochrome P450 2D6) | Ki (Cytochrome P450 2D6) | IC50 [2] | Ki [2] | IC50 [3] | Ki [3] | IC50 (Mu-type opioid receptor) | IC50 [4] | IC50 [5] | IC50 [6] | Ki [6]

COC1=C(OC)C(=O)C(CCCCCCCCCCO)=C(C)C1=O [IDEBENONE]
Not Active: IC50 [1] | Ki [1] | IC50 [2] | Ki [2] | IC50 [3] | Ki [3] | IC50 (Mu-type opioid receptor) | IC50 [4] | IC50 [5] | IC50 [6] | Ki [6]

Cc1c(OCC(F)(F)F)ccnc1C[S+]([O-])c1nc2ccccc2[nH]1 (centres undefined) [LANSOPRAZOLE]
Not Active: IC50 [1] | Ki [1] | IC50 [2] | Ki [2] | IC50 [3] | Ki [3] | IC50 (Mu-type opioid receptor) | IC50 [4] | IC50 [5] | IC50 [6] | Ki [6]

CC(C)c1cccc(C(C)C)c1O [PROPOFOL]
Not Active: IC50 [1] | Ki [1] | IC50 [2] | Ki [2] | IC50 [3] | Ki [3] | IC50 (Mu-type opioid receptor) | IC50 [4] | IC50 [5] | IC50 [6] | Ki [6]
